Reference: patent publication US8236818B2, “Substituted imidazopyridine derivatives as melanocortin-4 receptor antagonists” (Santhera Pharmaceuticals (Schweiz) AG, priority 2007, dated 2012)

Legend:
melanocortin-4 receptor [1] = target: T1, melanocortin-4 receptor (Homo sapiens, UniProt P32245); test: Membrane binding assay (fluorescence polarization, competition with fluorescence labeled NDP-alpha-MSH); conditions: read-out: hMC-4R binding assay IC50/μM
T1 construct: expressed in transfected cells; host or cells: HEK293 cells (membrane preparations)
T1 sequence (P32245 whole entry): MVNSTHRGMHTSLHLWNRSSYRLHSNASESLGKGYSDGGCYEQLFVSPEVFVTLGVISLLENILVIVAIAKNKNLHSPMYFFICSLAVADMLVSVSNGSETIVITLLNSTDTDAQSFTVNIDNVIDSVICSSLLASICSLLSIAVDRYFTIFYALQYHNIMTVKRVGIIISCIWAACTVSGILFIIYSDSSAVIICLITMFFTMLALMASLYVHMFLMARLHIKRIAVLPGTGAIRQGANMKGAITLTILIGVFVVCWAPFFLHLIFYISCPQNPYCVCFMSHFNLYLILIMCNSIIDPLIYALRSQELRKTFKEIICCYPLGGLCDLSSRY

melanocortin-4 receptor [2] = target: T1, melanocortin-4 receptor; test: Functional assay (cAMP fluorescence polarization, membrane based, agonistic activity); assay type: biochemical; conditions: for Emax: 2 h, read-out: % activation functional assay; for EC50: agonistic activity, cAMP, HEK293 membrane preparations, read-out: hMC-4R functional assay EC50/μM

## CC(C)CCN(CCC(C)C)C(=O)c1ccc2nc(-c3ccc(OCCO)nc3)c(CCCN3CCCC3C)n2c1 (stereo not shown) [Example 104]
melanocortin-4 receptor [1]
  IC50: < 0.1 µM
melanocortin-4 receptor [2]
  Emax: -15%

## COc1cccc(-c2nc3ccc(C(=O)N(CCC(C)C)CCC(C)C)cn3c2CCCN2CC[C@H](F)C2)c1 [Example 14]
melanocortin-4 receptor [1]
  IC50: < 0.1 µM
melanocortin-4 receptor [2]
  Emax: 0%

## COc1cccc(-c2nc3ccc(C(=O)N(CCC(C)C)CCC(C)C)cn3c2CC(C)CN2CCCC2)c1 (stereo not shown) [Example 54]
melanocortin-4 receptor [1]
  IC50: 0.1 to 1 µM
melanocortin-4 receptor [2]
  Emax: 0%

## CC(C)CCN(CCC(C)C)C(=O)c1ccc2nc(-c3ccc(Cl)cc3)c(CCCN3CCCC3)n2c1 [Example 19]
melanocortin-4 receptor [1]
  IC50: < 0.1 µM
melanocortin-4 receptor [2]
  Emax: 0%

## COc1ccc(-c2nc3ccc(C(=O)N(CCC(C)C)CCC(C)C)cn3c2CN2CCC(N)CC2)cc1 [Example 140]
melanocortin-4 receptor [1]
  IC50: 0.1 to 1 µM
melanocortin-4 receptor [2]
  Emax: 0%

## CC(C)CCN(CCC(C)C)C(=O)c1ccc2nc(-c3cccnc3N)c(CCCN(C)C)n2c1 [Example 87]
melanocortin-4 receptor [1]
  IC50: > 1 µM
melanocortin-4 receptor [2]
  Emax: 0%

## Cc1ccc(-c2nc3ccc(C(=O)N(CCC(C)C)CCC(C)C)cn3c2CCCN(C)C)nc1 [Example 58]
melanocortin-4 receptor [1]
  IC50: > 1 µM
melanocortin-4 receptor [2]
  Emax: 0%

## CC(=O)OCCn1cc(-c2nc3ccc(C(=O)N(CCC4CC4)CCC4CC4)cn3c2CCCN2CCCC2)ccc1=O [Example 105]
melanocortin-4 receptor [1]
  IC50: 0.1 to 1 µM
melanocortin-4 receptor [2]
  Emax: -24%

## CC(C)CCN(CCC(C)C)C(=O)c1ccc2nc(-c3ccc(Cl)nc3)c(CCCN3CCCC3)n2c1 [Example 67]
melanocortin-4 receptor [1]
  IC50: < 0.1 µM
melanocortin-4 receptor [2]
  Emax: 0%

## COc1cccc(-c2nc3ccc(C(=O)N(CCC(C)C)CCC(C)C)cn3c2CCCN2CCCCC2)c1 [Example 31]
melanocortin-4 receptor [1]
  IC50: < 0.1 µM
melanocortin-4 receptor [2]
  Emax: 0%

## CC(C)CCN(CCC(C)C)C(=O)c1ccc2nc(-c3ncco3)c(CCCN3CCCC3C)n2c1 (stereo not shown) [Example 69]
melanocortin-4 receptor [1]
  IC50: < 0.1 µM
melanocortin-4 receptor [2]
  Emax: 0%

## CC(C)CCN(CCC(C)C)C(=O)c1ccc2nc(-c3ccc4c(c3)OCCO4)c(CCCN)n2c1 [Example 1]
melanocortin-4 receptor [1]
  IC50: 0.1 to 1 µM
melanocortin-4 receptor [2]
  Emax: 0%

## CC(C)CCN(CCC(C)C)C(=O)c1ccc2nc(-c3ccc(C(N)=O)cc3)c(CCCN3CCCC3)n2c1 [Example 25]
melanocortin-4 receptor [1]
  IC50: < 0.1 µM
melanocortin-4 receptor [2]
  Emax: 0%

## CC(C)CCN(CCC(C)C)C(=O)c1ccc2nc(-c3ccc(-c4ccccn4)s3)c(CN3CCC(N)CC3)n2c1 [Example 124]
melanocortin-4 receptor [1]
  IC50: 0.1 to 1 µM
melanocortin-4 receptor [2]
  Emax: 0%

## COCCn1cc(-c2nc3ccc(C(=O)N(CCC(C)C)CCC(C)C)cn3c2CCCN2CCCC2)ccc1=O [Example 95]
melanocortin-4 receptor [1]
  IC50: < 0.1 µM
melanocortin-4 receptor [2]
  Emax: 0%

## CC(C)CCN(CCC(C)C)C(=O)c1ccc2nc(-c3ccc(OCCCO)nc3)c(CCCN3CCCC3)n2c1 [Example 92]
melanocortin-4 receptor [1]
  IC50: 0.1 to 1 µM
melanocortin-4 receptor [2]
  Emax: -31%
  EC50: < 0.1 µM

## COc1cccc(-c2nc3ccc(C(=O)N(CCC(C)C)CCC(C)C)cn3c2CCCN(C(C)C)C(C)C)c1 [Example 60]
melanocortin-4 receptor [1]
  IC50: 0.1 to 1 µM
melanocortin-4 receptor [2]
  Emax: 0%

## CC(C)CCN(CCC(C)C)C(=O)c1ccc2nc(-c3ccc(Cl)cc3)c(CN3CCCC(N)C3)n2c1 (stereo not shown) [Example 126]
melanocortin-4 receptor [1]
  IC50: > 1 µM
melanocortin-4 receptor [2]
  Emax: 0%

## CC(C)CCN(CCC(C)C)C(=O)c1ccc2nc(-c3ccc(Cl)nc3)c(CCCN(C)C)n2c1 [Example 66]
melanocortin-4 receptor [1]
  IC50: 0.1 to 1 µM
melanocortin-4 receptor [2]
  Emax: 0%

## COc1ccc(-c2nc3ccc(C(=O)N(CCC(C)C)CCC(C)C)cn3c2CN2CCC(N)CC2)cc1OC [Example 139]
melanocortin-4 receptor [1]
  IC50: 0.1 to 1 µM
melanocortin-4 receptor [2]
  Emax: 0%

## Cc1cccc(-c2nc3ccc(C(=O)N(CCC(C)C)CCC(C)C)cn3c2CCCN2CCCC2)n1 [Example 41]
melanocortin-4 receptor [1]
  IC50: < 0.1 µM
melanocortin-4 receptor [2]
  Emax: 0%

## COCC(C)NCCCc1c(-c2cccc(OC)c2)nc2ccc(C(=O)N(CCC(C)C)CCC(C)C)cn12 (stereo not shown) [Example 13]
melanocortin-4 receptor [1]
  IC50: > 1 µM
melanocortin-4 receptor [2]
  Emax: 0%

## CC(C)CCN(CCC(C)C)C(=O)c1ccc2nc(-c3ccc(OCCO)nc3)c(CCCN3CCCC3)n2c1 [Example 79]
melanocortin-4 receptor [1]
  IC50: < 0.1 µM
melanocortin-4 receptor [2]
  Emax: 11%

## CC(C)CCN(CCC(C)C)C(=O)c1ccc2nc(-c3ncco3)c(CCCN(C)C(C)C)n2c1 [Example 75]
melanocortin-4 receptor [1]
  IC50: < 0.1 µM
melanocortin-4 receptor [2]
  Emax: 1%

## COc1ccc(-c2nc3ccc(C(=O)N(CCC(C)C)CCC(C)C)cn3c2CCCN(C)C)cn1 [Example 83]
melanocortin-4 receptor [1]
  IC50: < 0.1 µM
melanocortin-4 receptor [2]
  Emax: -1%

## CC(C)CCN(CCC(C)C)C(=O)c1ccc2nc(-c3cc(O)ccn3)c(CCCN3CCCC3)n2c1 [Example 44]
melanocortin-4 receptor [1]
  IC50: < 0.1 µM
melanocortin-4 receptor [2]
  Emax: 0%

## CC(C)CN(CC(C)C)C(=O)c1ccc2nc(-c3ccc(C#N)cc3)c(CCCN3CCCC3)n2c1 [Example 144]
melanocortin-4 receptor [1]
  IC50: 0.1 to 1 µM
melanocortin-4 receptor [2]
  Emax: 0%

## COc1cccc(-c2nc3ccc(C(=O)N(CCC(C)C)CCC(C)C)cn3c2CCCN2CC[C@@H](O)C2)c1 [Example 34]
melanocortin-4 receptor [1]
  IC50: < 0.1 µM
melanocortin-4 receptor [2]
  Emax: -18%
  EC50: < 0.1 µM

## CC(C)CCN(CCC(C)C)C(=O)c1ccc2nc(-c3ccc4c(c3)CCC(=O)N4)c(CN3CCC(N)CC3)n2c1 [Example 136]
melanocortin-4 receptor [1]
  IC50: 0.1 to 1 µM
melanocortin-4 receptor [2]
  Emax: 0%

## CCCC1CCCN1C(=O)c1ccc2nc(-c3ccc(C#N)cc3)c(CCCN3CCCC3)n2c1 (stereo not shown) [Example 147]
melanocortin-4 receptor [1]
  IC50: > 1 µM
melanocortin-4 receptor [2]
  Emax: 0%

## COc1cccc(-c2nc3ccc(C(=O)N(CCC(C)C)CCC(C)C)cn3c2CCC(C)N2CCCC2)c1 (stereo not shown) [Example 21]
melanocortin-4 receptor [1]
  IC50: < 0.1 µM
melanocortin-4 receptor [2]
  Emax: 0%

## C#CCN(C)CCCc1c(-c2cccc(OC)c2)nc2ccc(C(=O)N(CCC(C)C)CCC(C)C)cn12 [Example 38]
melanocortin-4 receptor [1]
  IC50: > 1 µM
melanocortin-4 receptor [2]
  Emax: 0%

## CC1CCCN1CCCc1c(-c2ccc(OCCO)nc2)nc2ccc(C(=O)N(CCC3CC3)CCC3CC3)cn12 (stereo not shown) [Example 112]
melanocortin-4 receptor [1]
  IC50: < 0.1 µM
melanocortin-4 receptor [2]
  Emax: -9%

## CC(=O)OCCn1cc(-c2nc3ccc(C(=O)N(CCC(C)C)CCC(C)C)cn3c2CCCN2CCCC2C)ccc1=O (stereo not shown) [Example 101]
melanocortin-4 receptor [1]
  IC50: < 0.1 µM
melanocortin-4 receptor [2]
  Emax: -25%

## CC(C)CCN(CCC(C)C)C(=O)c1ccc2nc(-c3cc[nH]c(=O)c3)c(CCCN(C)C)n2c1 [Example 88]
melanocortin-4 receptor [1]
  IC50: 0.1 to 1 µM
melanocortin-4 receptor [2]
  Emax: -2%

## Cc1ccnc(-c2nc3ccc(C(=O)N(CCC(C)C)CCC(C)C)cn3c2CCCN2CCCC2)c1 [Example 40]
melanocortin-4 receptor [1]
  IC50: 0.1 to 1 µM
melanocortin-4 receptor [2]
  Emax: 0%

## CC(C)CCN(CCC(C)C)C(=O)c1ccc2nc(-c3ccc(C(=O)O)cc3)c(CCCN3CCCC3)n2c1 [Example 50]
melanocortin-4 receptor [1]
  IC50: 0.1 to 1 µM
melanocortin-4 receptor [2]
  Emax: -1%

## CC(C)CCN(CCC(C)C)C(=O)c1ccc2nc(-c3ccccn3)c(CCCN3CCCC3)n2c1 [Example 55]
melanocortin-4 receptor [1]
  IC50: 0.1 to 1 µM
melanocortin-4 receptor [2]
  Emax: 0%

## CC(C)CCN(CCC(C)C)C(=O)c1ccc2nc(-c3cc[nH]c(=O)c3)c(CCCN3CCCC3)n2c1 [Example 89]
melanocortin-4 receptor [1]
  IC50: < 0.1 µM
melanocortin-4 receptor [2]
  Emax: -25%
  EC50: < 0.1 µM

## COc1cccc(-c2nc3ccc(C(=O)N(CCC(C)C)CCC(C)C)cn3c2CCCNCC2CC2)c1 [Example 10]
melanocortin-4 receptor [1]
  IC50: > 1 µM
melanocortin-4 receptor [2]
  Emax: 0%

## CC(C)CCN(CCC(C)C)C(=O)c1ccc2nc(-c3ccc4c(c3)NC(=O)CO4)c(CCCN3CCCC3)n2c1 [Example 43]
melanocortin-4 receptor [1]
  IC50: < 0.1 µM
melanocortin-4 receptor [2]
  Emax: 0%

## CC(C)CCN(CCC(C)C)C(=O)c1ccc2nc(-c3ccc(Cl)c(Cl)c3)c(CN3CCC(N(C)C)CC3)n2c1 [Example 131]
melanocortin-4 receptor [1]
  IC50: < 0.1 µM
melanocortin-4 receptor [2]
  Emax: 0%

## CC(C)CCN(CCC(C)C)C(=O)c1ccc2nc(-c3ccc(Cl)cc3)c(CN3CCN4CCCC4C3)n2c1 (stereo not shown) [Example 128]
melanocortin-4 receptor [1]
  IC50: > 1 µM
melanocortin-4 receptor [2]
  Emax: 0%

## CC(C)CCN(CCC(C)C)C(=O)c1ccc2nc(-c3ncco3)c(CCCN3CCC[C@H]3C)n2c1 [Example 86]
melanocortin-4 receptor [1]
  IC50: < 0.1 µM
melanocortin-4 receptor [2]
  Emax: -11%
